We go through three compounds from patent publication US8940731B2, “Substituted pyridyl amide compounds as modulators of the histamine H3 receptor” (Janssen Pharmaceutica NV, priority 2006, dated 2015).

The target in one test is T1, human H3 receptor (Homo sapiens, UniProt Q9Y5N1).
T1 construct: expressed in transfected cells; host or cells: SK-N-MC sublines with a reporter construct
Briefly: Cyclic AMP Accumulation (human H3 receptor). In kind it is cell-based. From the text:
(§1) Sublines of SK-N-MC cells were created that expressed a reporter construct and either the human or rat H3 receptor.

Test [1] concerns the target T2, cloned human H3 receptors (Homo sapiens, UniProt Q9Y5N1).
T2 construct: expressed in transfected cells
The test is described as follows: H3 Receptor Binding (Human). Conditions: cloned human H3 receptors stably expressed in SK-N-MC cells; average of the results obtained; read-out: Human H3 Ki. As to the method: H3 Receptor Binding (Human)
Binding of compounds to the cloned human H3 receptors, stably expressed in SK-N-MC cells, was performed as described by Barbier, A. J. et al. (Br. J. Pharmacol. 2004, 143(5), 649-661).

In test [2] the target is T3, Rat H3 (Rattus norvegicus, UniProt Q9QYN8). The test is described as follows: H3 Receptor Binding (Rat). Particulars: rat brain membranes without cerebellum, 0.8 nM N-[3H]-α-methylhistamine, 60 min at 25° C.; average of the results obtained. As to the method:
H3 Receptor Binding (Rat)
A rat brain without cerebellum (Zivic Laboratories Inc., Pittsburgh, Pa.) was homogenized in 50 mM Tris-HCl/5 mM EDTA and centrifuged at 1,000 rpm for 5 min. The supernatant was removed and recentrifuged at 15,000 rpm for 30 min. Pellets were rehomogenized in 50 mM Tris/5 mM EDTA (pH 7.4). Membranes were incubated with 0.8 nM N-[^3H]-α-methylhistamine plus/minus test compounds for 60 min at 25° C. and harvested by rapid filtration over GF/C glass fiber filters (pretreated with 0.3% polyethylenimine) followed by four washes with buffer. Nonspecific binding was defined in the presence of 100 μM histamine.
Target sequence in this assay (Q9QYN8 1-397 isoform Q9QYN8-3): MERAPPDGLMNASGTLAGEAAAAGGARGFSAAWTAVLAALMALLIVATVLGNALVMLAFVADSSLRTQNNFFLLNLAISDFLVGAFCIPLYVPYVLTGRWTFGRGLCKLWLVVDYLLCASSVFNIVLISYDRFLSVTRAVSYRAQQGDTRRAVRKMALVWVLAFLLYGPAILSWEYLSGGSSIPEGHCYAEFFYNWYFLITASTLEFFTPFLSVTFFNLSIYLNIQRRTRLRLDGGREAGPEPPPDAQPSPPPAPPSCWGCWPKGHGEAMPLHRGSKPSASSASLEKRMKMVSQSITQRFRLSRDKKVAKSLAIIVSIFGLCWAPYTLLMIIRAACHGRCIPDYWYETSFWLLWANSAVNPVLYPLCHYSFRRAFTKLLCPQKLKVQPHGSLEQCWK

Test [3] has as its target T3, Rat H3. Briefly: cell-based.
Description: as §1
Target sequence in this assay (Q9QYN8 whole entry): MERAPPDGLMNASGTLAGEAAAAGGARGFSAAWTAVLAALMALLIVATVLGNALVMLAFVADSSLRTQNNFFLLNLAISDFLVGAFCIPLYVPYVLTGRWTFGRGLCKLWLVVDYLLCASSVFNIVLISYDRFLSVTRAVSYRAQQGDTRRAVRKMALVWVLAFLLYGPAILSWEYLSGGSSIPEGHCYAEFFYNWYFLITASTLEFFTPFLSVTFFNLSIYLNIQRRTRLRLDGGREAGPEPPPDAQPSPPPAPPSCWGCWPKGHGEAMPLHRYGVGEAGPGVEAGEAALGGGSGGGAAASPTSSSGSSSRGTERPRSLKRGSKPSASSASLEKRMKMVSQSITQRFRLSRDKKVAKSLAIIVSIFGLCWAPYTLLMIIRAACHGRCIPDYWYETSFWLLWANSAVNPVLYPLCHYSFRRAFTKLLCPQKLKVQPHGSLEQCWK

T1 sequence (Q9Y5N1 whole entry): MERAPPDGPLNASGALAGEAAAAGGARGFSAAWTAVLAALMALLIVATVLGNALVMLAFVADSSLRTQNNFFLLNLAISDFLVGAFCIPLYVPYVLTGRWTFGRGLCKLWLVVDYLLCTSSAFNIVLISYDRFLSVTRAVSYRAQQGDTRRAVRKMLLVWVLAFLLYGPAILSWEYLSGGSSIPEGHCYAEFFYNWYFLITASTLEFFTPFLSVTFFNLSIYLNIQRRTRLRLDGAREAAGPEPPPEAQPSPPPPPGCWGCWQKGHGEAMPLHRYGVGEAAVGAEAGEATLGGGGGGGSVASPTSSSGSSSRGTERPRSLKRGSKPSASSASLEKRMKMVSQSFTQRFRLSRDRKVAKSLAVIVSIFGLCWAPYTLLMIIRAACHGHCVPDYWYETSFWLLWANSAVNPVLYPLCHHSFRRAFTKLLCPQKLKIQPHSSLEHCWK
T2 sequence (Q9Y5N1 whole entry): as above

As to `O=C(c1ccc(Oc2ccc(Cl)c(Cl)c2)nc1)N1CCCN(C2CC2)CC1` [Example 9, (4-Cyclopropyl-[1,4]diazepan-1-yl)-[6-(3,4-dichloro-phenoxy)-pyridin-3-yl]-methanone], the Kb at human H3 receptor was 8.71 nM; on Rat H3 [3], 44.7 nM. The inhibitory constant (Ki) in test [1] was determined as 11 nM; on Rat H3 [2], 130 nM.

With `O=C(c1ccc(Oc2ccccc2F)nc1)N1CCCN(C2CCC2)CC1` [Example 29, (4-Cyclobutyl-[1,4]diazepan-1-yl)-[6-(2-fluoro-phenoxy)-pyridin-3-yl]-methanone], the Kb on human H3 receptor is 0.813 nM; on Rat H3 [3], 3.55 nM. Further, the values for the Ki (in test [1]; at Rat H3 [2]) were 1 nM and 20 nM, respectively.

As for `O=C(c1ccc(Oc2ccc(F)c(F)c2)nc1)N1CCCN(C2CCC2)CC1` [Example 26, (4-Cyclobutyl-[1,4]diazepan-1-yl)-[6-(3,4-difluoro-phenoxy)-pyridin-3-yl]-methanone], the Kb at human H3 receptor was 0.229 nM; on Rat H3 [3], 2.14 nM. Further, the results for the Ki (in test [1]; at Rat H3 [2]) were 1 nM and 16 nM, respectively.

As usually defined, the Ki is the equilibrium dissociation constant of an inhibitor or competing ligand from its target.
